Experimental data: patent publication US8598384B2, “Crystalline teglicar” (Sigma-Tau Industrie Farmaceutiche Riunite S.p.A., priority 2007, dated 2013)

Columns and labels:
[1] = Karl Fisher analysis (water content), hygroscopic stability; type: physicochemical; details: exposed to the air for 18 hours; for KF (% H2O) t = 18 h: kept at room temperature
Experimental: Water content analysis were carried out with a Metrohm's KF Coulometer, using Metrohm glass vials (volume 10 mL) with elastometric tight closure, with about 10÷40 mg of sample. The samples were analyzed at 140° C.
The reference was an empty vial of the same kind. Sodium Tartrate diHydrate (theoretical amount is 15.66%) was used to assess the calibration of the apparatus with regard to the humidity.
Then these compounds were kept at room temperature under the same conditions, exposed to the air for 18 hours.

[2] = biological target: T1, L-CPT I (liver CPT isoform I) (Homo sapiens, UniProt P50416); details: in vitro; cited from earlier work
T1 sequence (P50416 1-773): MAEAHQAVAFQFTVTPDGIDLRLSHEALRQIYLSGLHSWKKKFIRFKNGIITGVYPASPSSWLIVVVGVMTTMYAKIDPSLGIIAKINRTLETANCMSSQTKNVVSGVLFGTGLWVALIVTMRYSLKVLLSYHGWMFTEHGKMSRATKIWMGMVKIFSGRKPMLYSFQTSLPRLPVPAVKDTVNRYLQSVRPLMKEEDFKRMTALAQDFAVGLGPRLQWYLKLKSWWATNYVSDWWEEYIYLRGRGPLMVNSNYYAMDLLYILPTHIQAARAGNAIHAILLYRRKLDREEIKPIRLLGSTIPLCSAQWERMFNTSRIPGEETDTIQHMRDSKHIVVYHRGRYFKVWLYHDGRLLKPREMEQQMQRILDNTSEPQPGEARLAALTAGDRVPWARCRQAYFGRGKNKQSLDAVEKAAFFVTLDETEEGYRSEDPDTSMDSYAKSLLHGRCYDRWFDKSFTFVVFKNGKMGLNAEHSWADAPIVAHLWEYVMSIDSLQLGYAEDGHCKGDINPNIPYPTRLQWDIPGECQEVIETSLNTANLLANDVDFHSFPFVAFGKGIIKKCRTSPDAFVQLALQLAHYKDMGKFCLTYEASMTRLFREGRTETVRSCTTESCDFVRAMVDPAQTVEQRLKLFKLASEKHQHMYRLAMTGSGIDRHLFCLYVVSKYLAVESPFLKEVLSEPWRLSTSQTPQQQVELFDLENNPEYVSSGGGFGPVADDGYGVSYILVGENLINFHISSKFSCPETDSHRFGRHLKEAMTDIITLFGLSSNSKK

ketogenesis = details: in vivo, fasted rats; cited from earlier work
serum glucose levels = details: diabetic mouse model; cited from earlier work

| Structure (SMILES) | KF (% H2O) t = 18 h [1] | change of H2O content after exposure to air ([1]; room temperature, repeated KF analysis) | selectivity of inhibition of L-CPT I with respect to M-CPT I [2] | effect on ketogenesis (ketogenesis) | change in heart weight and triglycerides content (serum glucose levels) | effect on serum glucose levels (serum glucose levels) |
| --- | --- | --- | --- | --- | --- | --- |
| CCCCCCCCCCCCCCNC(=O)N[C@H](CC(=O)[O-])C[N+](C)(C)C [Comparative Example 2, R-4-trimethylammonium-3-(tetradecylcarbamoyl)-amino butyrate] | 15.2% | large increase of H2O content | – | – | – | – |
| CCCCCCCCCCCCCCNC(=O)N[C@H](CC(=O)[O-])C[N+](C)(C)C [Example 1, R-4-trimethylammonium-3-(tetradecylcarbamoyl)-amino butyrate] | 5.8% | – | – | – | – | – |
| CCCCCCCCCCCCCCNC(=O)N[C@H](CC(=O)[O-])C[N+](C)(C)C [teglicar, R-4-trimethylammonium-3-(tetradecylcarbamoyl)-amino butyrate] | – | – | selectively inhibit | depress ketogenesis | without any significant change | good reduction of serum glucose levels |
